Patent US20090221683A1, “Combination of CXCR4 Antagonist and Morphogen to Increase Angiogenesis” (Caritas St.Elizabeth Medical Center of Boston, Inc, priority 2005, published 2009)
Like-named read-outs stand apart in the source and are kept apart here.

Key:
[1] = test system: bone-marrow derived endothelial cells (double-positive cells); conditions: one week after AMI
Description: (§1) Such methods can be used for study of the compositions and methods of the instant invention.
Apex-sections from the Tie-2/LZ/BMT mice were embedded in OCT compound (Miles Scientific) and snap-frozen in liquid nitrogen for fluorescence microscopy immediately after sacrifice.
Sections of ischemic (FIGS. 12A-12F) and intact (FIGS. 13A-13F) myocardium were stained for both BS lectin 1 (green fluorescence) and β-galactosidase (red fluorescence). […] Such methods can be used for study of the compositions and methods of the instant invention.

[2] = test system: bone marrow EPCs (Sca-1/Flk-1 positive) of MMP-9-/- mice; conditions: 1 week after MI
Description: MMP-9 expression was disrupted by deleting of most of exon 2 of the MMP-9 gene in the 129/SvEv genetic background (Jackson), as described previously. [Vu, 1998 #2370] […] Mononuclear cells from peripheral blood and total BM cells were isolated one week after MI and were examined by FACS analysis as described above.

[3] = test system: bone marrow EPCs (Sca-1/Flk-1 positive); conditions: one week after MI
Protocol: (§2) Fluorescence-activated cell sorting (FACS) was used to identify EPCs from mononuclear cells isolated both from peripheral blood and bone marrow. The viable mononuclear cell population was analyzed for the expression of Sca-1-FITC (Pharmingen) and Flk-1 (Santa Cruz) conjugated with the corresponding phycoerythrin-labeled secondary antibody (Sigma). Isotype-identical antibodies served as negative controls. Immunofluorescence-labeled cells were fixed with 2% paraformaldehyde and analyzed by quantitative flow cytometry using a FACStar flow cytometer (Becton Dickinson) and Cell Quest Software that counted 10,000 events per sample.

[4] = test system: peripheral blood EPCs (Sca-1/Flk-1 positive); conditions: one week after MI
Protocol: as §2

[5] = test system: peripheral blood EPCs
Protocol: (§3) Peripheral blood mononuclear cells (PBMNCs) were isolated from 500 μl of peripheral blood obtained from each mouse. PBMNCs were cultured in EBM media (Clonetics, San Diego, Calif.) supplemented with 5% fetal bovine serum (FBS), antibiotics, and growth factors (EPC medium) on four 4-well glass slides coated with rat plasma vitronectin (Sigma) in 0.5% gelatin solution. Four days after culture, EPCs, recognized as attaching spindle-shaped cells, were assayed by co-staining with acetylated LDL (acLDL)-DiI (Biomedical Technologies, Stoughton, Mass.) and Bandeiraea simplicifolia (BS-1) lectin I (Vector Laboratories, Burlingame, Calif.), characteristics indicators of endothelial lineage, and conjugated with FITC (Sigma). Fluorescent microscopy identified double-positive cells as […] The numbers of double-positive cells per sample, measured in fifteen fields under 20× magnification, was were counted per sample in a blinded manner.
At each time point after the induction of MI, mononuclear cells were isolated from peripheral blood and total BM cells that had been obtained by flushing the tibias and femurs. EPCs were counted by culturing as described in Example 1, and stained with both acLDL-DiI and BS-1 lectin. Double positive cells were counted in 15 fields under objective 20× magnification per sample in a blinded manner.

[6] = test system: circulating EPC; conditions: 2 hour after treatment; 240 μg/kg SC
Protocol: (§4) Methods: Using wild-type rats, MI was induced by ligation of the left anterior descending artery. […] 4 weeks after treatment, echocardiography, hemodynamic measurement and histological examination were performed.

[7] = test system: left ventricle fibrosis; conditions: two weeks after AMI
Protocol: (§5) The explanted hearts of sacrificed mice were sliced in a bread-loaf fashion into transverse sections from apex to base (base-, mid-, and apex-portions) and fixed with 4% paraformaldehyde. Tissues were embedded in paraffin and sectioned for elastic tissue/trichrome staining and immunohistochemistry using the murine-specific EC marker Bandeiraea simplicifolia lectin I (Isolectin B4) (Vector laboratories).
(§6) Capillary density was assessed by histological examination of five randomly selected fields of tissue sections from segments of the left ventricular myocardium served by the occluded LAD. Capillaries were recognized as tubular structures positive for isolectin B4. Elastic tissue/trichrome-stained tissues from the mice four weeks after MI were used to measure the average ratio of the external circumference of fibrosis area to LV area.

[8] = test system: left ventricular myocardium border zone capillaries; conditions: two weeks after AMI
Protocol: as §5, §6

[9] = test system: FVB mice with myocardial infarction; conditions: for FS (fractional shortening) / LVDd (left ventricular diastolic dimension) / LVDs (left ventricular systolic dimension) / LV + dP/dt / LV − dP/dt / LVEDP (left ventricular end-diastolic pressure) / LVSP (left ventricular systolic pressure): mean ± SE
Protocol: (§7) Eight-week old male FVB mice were anesthetized with sodium pentobarbital (50 mg/kg IP). The animals were intubated orally with a 22G IV catheter and artificially ventilated with a respirator (Harvard Apparatus). A left intercostal thoracotomy was performed and the ribs were retracted with 5-0 polypropylene sutures. After the pericardium was opened, the left anterior descending (LAD) branch of the left coronary artery was ligated proximal to the bifurcation between the LAD and the diagonal branch using 8-0 polypropylene sutures and visualized with a dissecting microscope. Positive end-expiratory pressure was applied to fully inflate the lungs, and the chest was closed with 7-0 polypropylene sutures. […] After physiological assessment at one, two and four weeks after MI, a subgroup of the mice were euthanized by intravenous administration of a lethal dose of pentobarbital.
Transthoracic echocardiography (SONOS 5500, Hewlett Packard) was performed just before MI and one, two and four weeks after MI. Left ventricular diastolic (LVDd) and systolic (LVDs) dimensions and fractional shortening were measured at the mid-papillary muscle level. Hemodynamic measurements were obtained at two and four weeks after MI using a 1.0-French high-fidelity pressure catheter (Millar Instruments, Houston, Tex.) via the left carotid artery. LV systolic pressure and maximal positive (+dP/dt) and negative (−dP/dt) pressure development were recorded after stabilization of LV function and heart rate. Such methods can be used for study of the compositions and methods of the instant invention.

[10] = test system: border zone between scar and normal tissue capillaries; assay: Chronic MI rats: capillary density in the border zone; format: in vivo, rat; conditions: 4 weeks after treatment
Protocol: as §4

[11] = test system: MMP-9 mRNA; conditions: one week after MI; RT-PCR
Protocol: (§8) RNA was extracted from mononuclear cells isolated from bone marrow using TRIzol reagent (Invitrogen) according to the manufacture's instruction. Reverse transcriptase-polymerase chain reaction (RT-PCR) of the MMP-9 and GAPDH genes was performed using 1 pg of total RNA. PCR was performed for 25 cycles for both MMP-9 and GAPDH; each cycle maintained 94° C. for 30 seconds and 64° C. for three minutes. Amplification was carried out in 20-μl reaction mixtures containing 0.4 U Taq polymerase.

[12] = test system: MMP-2 mRNA; conditions: one week after MI; RT-PCR
Protocol: as §8

[13] = test system: bone marrow derived EPCs (X-gal positive cells); conditions: Tie2-LacZ/BMT mice
Description: as §1, §1

[14] = test system: mice with AMI
Protocol: as §7
All values were expressed as mean±the standard error of the mean. […] Overall survival of all the mice was assessed by Kaplan-Meier analysis. Survival in individual experimental groups was also analyzed by Fisher's extract probability test. A p value of less than 0.05 was considered statistically significant.

[15] = test system: peripheral blood MNCs and EPCs
Protocol: as §3, §1

[16] = 1 week after MI, 125 μg s.c. single injection
[17] = 2 weeks after MI, 125 μg s.c. single injection
[18] = 2 weeks after MI, 125 μg s.c. single injection, listed as AMD
[19] = 2 weeks after MI, listed as AMD
[20] = 4 weeks after MI, 125 μg s.c. single injection
[21] = 4 weeks after MI, 125 μg s.c. single injection, listed as AMD
[22] = 4 weeks after MI, listed as AMD

c1cc(CN2CCCNCCNCCCNCC2)ccc1CN1CCCNCCNCCCNCC1 [AMD-3100, 1,1′-[1,4-phenylene-bis(methylene)]-bis-1,4,8,11-tetraazacyclotetradecane]
double-positive cells (BS lectin 1 and β-galactosidase) ([1]; a representative section): eight
double-positive cells (BS lectin 1 and β-galactosidase) ([1]; another representative section): eight
difference in Sca-1/Flk-1 positive BM cells versus saline [2]: no significant difference
EPCs (Sca-1/Flk-1 positive) in BM mononuclear cells by FACS [3]: 1.9±0.1%
EPCs (Sca-1/Flk-1 positive) in peripheral blood mononuclear cells by FACS [4]: 11.3±1.4%
number of cultured EPCs ([5]; four weeks after AMI): returned to basline
number of EPCs in the peripheral blood (cultured, acLDL-DiI/BS-1 lectin double positive) ([5]; one week after AMI): 868±210 /mm^2
number of EPCs in the peripheral blood (cultured, acLDL-DiI/BS-1 lectin double positive) ([5]; two weeks after AMI): 556±47 /mm^2
circulating EPC counts relative to baseline [6]: five
fibrosis area of left ventricle [7]: 25±6%
capillary density in the border zone [8]: 4005±189 /mm^2
FS (fractional shortening) [9, 16]: 35 ± 2%
LVDd (left ventricular diastolic dimension) [9, 16]: 3.5 ± 0.1 mm
LVDs (left ventricular systolic dimension) [9, 16]: 2.2 ± 0.1 mm
FS (fractional shortening) [9, 17]: 34±1%
LVDd (left ventricular diastolic dimension) [9, 17]: 3.8±0.1 mm
LVDs (left ventricular systolic dimension) [9, 17]: 2.5±0.1 mm
FS (fractional shortening) [9, 18]: 34±1%
LVDd (left ventricular diastolic dimension) [9, 18]: 3.8 ± 0.1 mm
LVDs (left ventricular systolic dimension) [9, 18]: 2.5 ± 0.1 mm
LVDd (left ventricular diastolic dimension) ([9]; 2 weeks after MI, 125 μg s.c. single injection, listed as AMD3100): 3.8±0.1 mm
LV + dP/dt ([9]; 2 weeks after MI): 3383±104 mm Hg/s
LV − dP/dt ([9]; 2 weeks after MI): 2213±113 mm Hg/s
LVEDP (left ventricular end-diastolic pressure) ([9]; 2 weeks after MI): 1.6±0.4 mmHg
LVSP (left ventricular systolic pressure) ([9]; 2 weeks after MI): 71±2 mmHg
LV − dP/dt [9, 19]: 2842 ± 200 mm Hg/s
LVEDP (left ventricular end-diastolic pressure) [9, 19]: 1.5±0.2 mmHg
LVSP (left ventricular systolic pressure) [9, 19]: 73 ± 3 mmHg
LVDs ([9]; 3 wks post-MI (as printed in text)): 2.5±0.2 mm
LVDd (left ventricular diastolic dimension) [9, 20]: 4.0±0.1 mm
LVDs (left ventricular systolic dimension) [9, 20]: 2.6±0.2 mm
FS (fractional shortening) [9, 21]: 28±1%
LVDd (left ventricular diastolic dimension) [9, 21]: 4.0 ± 0.1 mm
LVDs (left ventricular systolic dimension) [9, 21]: 2.9 ± 0.1 mm
LV − dP/dt ([9]; 4 weeks after MI): 2213 ± 112 mm Hg/s
LV + dP/dt [9, 22]: 3383±104 mm Hg/s
LVEDP (left ventricular end-diastolic pressure) [9, 22]: 1.6±0.4 mmHg
LVSP (left ventricular systolic pressure) [9, 22]: 71±2 mmHg
FS (fractional shortening) ([9]; Before MI (baseline)): 52 ± 1%
LVDd (left ventricular diastolic dimension) ([9]; Before MI (baseline)): 2.8 ± 0.1 mm
LVDs (left ventricular systolic dimension) ([9]; Before MI (baseline)): 1.4 ± 0.1 mm
difference in left ventricular systolic pressure (LVSP) between the groups ([9]; two weeks after MI): no significant difference
capillary density in the border zone between scar and normal tissue, increase vs. control [10]: +52%
MMP-9 mRNA expression in BM-mononuclear cells [11]: enhanced expression
MMP-2 mRNA expression in BM-mononuclear cells [12]: but not MMP-2
number of X-gal positive cells in infarct and border area ([13]; 1 week after AMI): 3776±113 /mm^2
number of X-gal positive cells in infarct and border area ([13]; 2 weeks after AMI): 1906±138 /mm^2
mice still living (survival rate) ([14]; 14 weeks after AMI, FIG. 4A): 64%
mice died ([14]; another group of mice, four weeks after MI, FIG. 4B): 42%
survival rate versus mice receiving saline ([14]; four weeks after MI, P<0.05): higher
maximal MNCs and EPCs (acLDL uptake and BS-1 lectin double-positive cells) ([15]; 1 hour after single s.c. injection of 125 μg, n=5 experiments): 613±89 cells/mm^2
time for number of EPCs/MNCs to return to baseline after injection ([15]; single s.c. injection of 125 μg): ≤ 24 h
